Where a name gives a salt, the structure may show the parent alone. Read-outs that look alike come from different tables or passages of the source.
Tests used:
α2-Adrnoceptor = target: T1, α2-Adrnoceptor (Homo sapiens, UniProt P08913); assay: α2-Adrenoceptor binding ([3H] Rauwolscine, human platelet membranes)
T1 construct: from tissue; host or cells: human platelet membranes
T1 sequence (P08913 1-465): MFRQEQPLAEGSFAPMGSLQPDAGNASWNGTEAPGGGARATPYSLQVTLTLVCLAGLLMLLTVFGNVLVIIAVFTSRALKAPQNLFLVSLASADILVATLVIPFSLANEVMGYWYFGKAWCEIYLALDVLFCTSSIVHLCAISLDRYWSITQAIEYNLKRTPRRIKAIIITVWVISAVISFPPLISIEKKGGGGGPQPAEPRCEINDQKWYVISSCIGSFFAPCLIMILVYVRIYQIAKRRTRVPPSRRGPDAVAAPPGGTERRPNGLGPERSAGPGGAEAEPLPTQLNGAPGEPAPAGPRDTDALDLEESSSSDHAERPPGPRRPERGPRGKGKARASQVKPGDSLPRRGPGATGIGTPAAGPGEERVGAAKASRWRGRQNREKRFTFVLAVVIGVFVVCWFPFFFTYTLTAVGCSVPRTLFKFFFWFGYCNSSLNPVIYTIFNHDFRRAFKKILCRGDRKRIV
Method: Human platelet membranes were incubated with [^3 H] Rauwolscine (0.5-1.0 nM) for 30 minutes at 30° C. with varying concetrates of the drug (0.1-10,000 nM). The binding assay was stopped by filtering and rinsing on GF B glass fibre filters.
Binding Affinity (Ki) was calculated using the Cheng-Prussoff equation.

[1] = test system: Adrenaline-Exacerbated Glucose Intolerance; assay: Reversal of Adrenaline-Exacerbated Glucose Intolerance in Mice; type: in vivo, CFLP female mice; conditions: 20 μmol/kg oral gavage, 30 min before glucose (1 g/kg) and adrenaline (300 μg/kg) s.c.; blood samples 0-120 min; versus water dosed control
Method: Reversal of Adrenaline-Exacerbated Glucose Intolerance in Mice CFLP female mice of about 25 g were fasted for 24 hours prior to receiving water (10 ml/kg) or the compound by oral gavage. Thirty minutes later, glucose (1 g/kg) and adrenaline (300 μg/kg) were injected subcutaneously. Blood samples for glucose analysis were taken serially from the tail of each mouse at 0, 30, 60, 90 and 120 minutes after dosing glucose and the results are expressed below as the percentage reduction in the area under the blood glucose curve; the compound treated groups being compared to the water dosed control group. Six mice were used in each treatment group.

Row | SMILES | Ki (α2-Adrnoceptor) [nM] | % Reduction in area under Blood Glucose Curve [1] [%] | Ki (α2-Adrnoceptor; [3H] Rauwolscine (0.5-1.0 nM), human platelet membranes, 30 minutes at 30° C., Cheng-Prussoff equation, read-out: Binding Affinity Ki) [nM]
1 | C[C@H]1c2ccccc2C[C@H]1NC1=NCCO1 (relative stereo) [Example 6, 2-[cis-2-(2,3-dihydro-1-methyl-1H-indene)amino]4,5-dihydrooxazole] | 2 | – | –
2 | C[C@H]1c2ccccc2C[C@@H]1NC1=NCCO1 (relative stereo) [Example 7, 2-[Trans-2-(2,3-dihydro-1-methyl-1H-indene)amino]4,5-dihydrooxazole] | 2 | – | –
3 | c1ccc2c(c1)CC(NC1=NCCO1)C2 [Example 1, 2-[2-(2,3-Dihydro-1H-indene)amino]4,5-dihydrooxazole] | 1 | 35 | –
4 | c1ccc2c(c1)CC(NC1=NCCN1)C2 [Example 2, 2-[2-(2,3-Dihydro-1H-indene)amino)4,5-dihydroimidazole hydrochloride hemihydrate] | 98 | – | –
5 | Clc1cccc2c1CC(NC1=NCCO1)C2 (stereo not shown) [Example 3, 2-[2-(4-Chloro-2,3-dihydro-1H-indene)amino]4,5-dihydrooxazole] | 1 | 42 | –
6 | Clc1ccc2c(c1)CC(NC1=NCCO1)C2 (stereo not shown) [Example 4, 2-[2-(5-Chloro-2,3-dihydro-1H-indene)amino]4,5-dihydrooxazole] | 25 | 44 | –
7 | Cc1ccc2c(c1)CC(NC1=NCCO1)C2 (stereo not shown) [Example 5, 2-[2-(2,3-dihydro-5-methyl-1H-indene)amino]4,5-dihydrooxazole] | 25 | – | –
8 | c1ccc2c(c1)CCC(NC1=NCCO1)C2 (stereo not shown) [Example 8, 2-[2-(1,2,3,4-Tetrahydronaphthyl)amino]4,5-dihydrooxazole] | – | 18 | –
9 | c1ccc2c(c1)CC(NC1=NCCS1)C2 [Example 9, 2-[2-(2,3-Dihydro-1H-indene)amino]4,5-dihydrothiazole] | – | 33 | 190

From patent US4861789A, “Dihydro-indene-amine-dihydrooxazoles” (Beecham Group plc, priority 1986, dated 1989)
